From patent US12077503B2, “Substituted cyclic amides and their use as herbicides” (FMC CORPORATION, priority 2015, dated 2024)

Columns and labels:
Format in all cases: in vivo
[1] = test system: Kochia (Kochia scoparia); test: Test A preemergence; conditions: Preemergence; for Plant response rating, Kochia: 125 g ai/ha, visual injury after approximately 10 d, 0 to 100 scale where 0 is no effect and 100 is complete control; for Kochia plant response rating (0 to 100 scale, 0 is no effect, 100 is complete control): 500 g ai/ha, visual injury approx. 10 d
Method in brief: (§1)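 Seeds sprayed preemergence with a directed soil spray, or plants at 2 to 10 cm height and one- to two-leaf stage sprayed postemergence, with test chemicals in a non-phytotoxic solvent mixture containing surfactant, in loam soil–sand blend. Injury rated visually against untreated controls after about 10 d in greenhouse, 0 (no effect) to 100 (complete control).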

[2] = test system: barnyardgrass (Echinochloa crus-galli); test: Test A preemergence; conditions: Preemergence; for Plant response rating, Barnyardgrass: 125 g ai/ha, visual injury after approximately 10 d, 0 to 100 scale where 0 is no effect and 100 is complete control; for Barnyardgrass plant response rating (0 to 100 scale, 0 is no effect, 100 is complete control): 500 g ai/ha, visual injury approx. 10 d
Method in brief: as §1

[3] = test system: giant foxtail (Setaria faberii); test: Test A preemergence; conditions: Preemergence; for Plant response rating, Foxtail, Giant: 125 g ai/ha, visual injury after approximately 10 d, 0 to 100 scale where 0 is no effect and 100 is complete control; for Foxtail, Giant plant response rating (0 to 100 scale, 0 is no effect, 100 is complete control): 500 g ai/ha, visual injury approx. 10 d
Method in brief: as §1

[4] = test system: pigweed (Amaranthus retroflexus); test: Test A preemergence; conditions: Preemergence; for Plant response rating, Pigweed: 125 g ai/ha, visual injury after approximately 10 d, 0 to 100 scale where 0 is no effect and 100 is complete control; for Pigweed plant response rating (0 to 100 scale, 0 is no effect, 100 is complete control): 500 g ai/ha, visual injury approx. 10 d
[5] = test system: ragweed (common ragweed, Ambrosia elatior); test: Test A preemergence; conditions: Preemergence; for Plant response rating, Ragweed: 125 g ai/ha, visual injury after approximately 10 d, 0 to 100 scale where 0 is no effect and 100 is complete control; for Ragweed plant response rating (0 to 100 scale, 0 is no effect, 100 is complete control): 500 g ai/ha, visual injury approx. 10 d
Method in brief: as §1

[6] = test system: ryegrass, Italian (Italian ryegrass, Lolium multiflorum); test: Test A preemergence; conditions: Preemergence; for Plant response rating, Ryegrass, Italian: 125 g ai/ha, visual injury after approximately 10 d, 0 to 100 scale where 0 is no effect and 100 is complete control; for Ryegrass, Italian plant response rating (0 to 100 scale, 0 is no effect, 100 is complete control): 500 g ai/ha, visual injury approx. 10 d
Method in brief: as §1

[7] = test system: Galium (catchweed bedstraw, Galium aparine); test: Test A postemergence; conditions: for Galium plant response rating: visual injury rating on 0 to 100 scale (0 no effect, 100 complete control), approx. 10 d
Method in brief: as §1

[8] = test system: Kochia (Kochia scoparia); test: Test A postemergence; conditions: for Kochia plant response rating: visual injury rating on 0 to 100 scale (0 no effect, 100 complete control), approx. 10 d
Method in brief: as §1

[9] = test system: barnyardgrass (Echinochloa crus-galli); test: Test A postemergence; conditions: for Barnyardgrass plant response rating: visual injury rating on 0 to 100 scale (0 no effect, 100 complete control), approx. 10 d
Method in brief: as §1

[10] = test system: blackgrass (Alopecurus myosuroides); test: Test A postemergence; conditions: for Blackgrass plant response rating: visual injury rating on 0 to 100 scale (0 no effect, 100 complete control), approx. 10 d
Method in brief: as §1

[11] = test system: corn (Zea mays); test: Test A postemergence; conditions: for Corn plant response rating: visual injury rating on 0 to 100 scale (0 no effect, 100 complete control), approx. 10 d
Method in brief: as §1

[12] = test system: giant foxtail (Setaria faberii); test: Test A postemergence; conditions: for Foxtail, Giant plant response rating: visual injury rating on 0 to 100 scale (0 no effect, 100 complete control), approx. 10 d
Method in brief: as §1

[13] = test system: pigweed (Amaranthus retroflexus); test: Test A postemergence; conditions: for Pigweed plant response rating: visual injury rating on 0 to 100 scale (0 no effect, 100 complete control), approx. 10 d
Method in brief: as §1

[14] = test system: ragweed (common ragweed, Ambrosia elatior); test: Test A postemergence; conditions: for Ragweed plant response rating: visual injury rating on 0 to 100 scale (0 no effect, 100 complete control), approx. 10 d
Method in brief: as §1

[15] = test system: ryegrass, Italian (Italian ryegrass, Lolium multiflorum); test: Test A postemergence; conditions: for Ryegrass, Italian plant response rating: visual injury rating on 0 to 100 scale (0 no effect, 100 complete control), approx. 10 d
Method in brief: as §1

[16] = test system: wheat (Triticum aestivum); test: Test A postemergence; conditions: for Wheat plant response rating: visual injury rating on 0 to 100 scale (0 no effect, 100 complete control), approx. 10 d
Method in brief: as §1

[17] = test system: barnyardgrass (Echinochloa crus-galli); test: Test B flooded paddy test; conditions: Flood, 250 g ai/ha; 0 to 100 scale where 0 is no effect and 100 is complete control; 13 to 15 d
Method in brief: (§2)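 Greenhouse paddy pots with 2-leaf stage plants received compound by direct addition to floodwater 3 cm deep, kept at that level. Scored visually at 13–15 d versus controls (0 no effect; 100 complete control).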

[18] = test system: ducksalad (Heteranthera limosa); test: Test B flooded paddy test; conditions: Flood, 250 g ai/ha; 0 to 100 scale where 0 is no effect and 100 is complete control; 13 to 15 d
Method in brief: as §2

[19] = test system: rice (Oryra sativa); test: Test B flooded paddy test; conditions: Flood, 250 g ai/ha; 0 to 100 scale where 0 is no effect and 100 is complete control; 13 to 15 d
Method in brief: as §2

[20] = test system: sedge, umbrella (small-flower umbrella sedge, Cyperus difformis); test: Test B flooded paddy test; conditions: Flood, 250 g ai/ha; 0 to 100 scale where 0 is no effect and 100 is complete control; 13 to 15 d
Method in brief: as §2

[21] = Postemergence, 500 g ai/ha, 0 to 100 scale where 0 is no effect and 100 is complete control
[22] = 125 g ai/ha, postemergence, visual rating after approx. 10 d, 0 to 100 scale (0 no effect, 100 complete control)

| SMILES | Plant response rating, Kochia [1] | Kochia plant response rating (0 to 100 scale, 0 is no effect, 100 is complete control) [1] | Plant response rating, Barnyardgrass [2] | Barnyardgrass plant response rating (0 to 100 scale, 0 is no effect, 100 is complete control) [2] | Plant response rating, Foxtail, Giant [3] | Foxtail, Giant plant response rating (0 to 100 scale, 0 is no effect, 100 is complete control) [3] | Plant response rating, Pigweed [4] | Pigweed plant response rating (0 to 100 scale, 0 is no effect, 100 is complete control) [4] | Plant response rating, Ragweed [5] | Ragweed plant response rating (0 to 100 scale, 0 is no effect, 100 is complete control) [5] | Plant response rating, Ryegrass, Italian [6] | Ryegrass, Italian plant response rating (0 to 100 scale, 0 is no effect, 100 is complete control) [6] | Plant response rating, Galium [7, 21] | Plant response rating, Kochia [8, 21] | Plant response rating, Barnyardgrass [9, 21] | Plant response rating, Blackgrass [10, 21] | Plant response rating, Corn [11, 21] | Plant response rating, Foxtail, Giant [12, 21] | Plant response rating, Pigweed [13, 21] | Plant response rating, Ragweed [14, 21] | further results |
| --- | --- | --- | --- | --- | --- | --- | --- | --- | --- | --- | --- | --- | --- | --- | --- | --- | --- | --- | --- | --- | --- |
| O=C(Nc1cccc(F)c1F)C1C(=O)N(CC=CCl)CC1c1cccc(C(F)(F)F)c1 (stereo not drawn) [Compound 485] | 0 | 0 | 30 | 80 | 70 | 90 | 0 | 0 | 0 | 0 | 0 | 0 | 30 | 30 | 50 | 0 | 20 | 70 | 40 | 0 | Galium plant response rating ([7]; 125 g ai/ha, postemergence): 0; Kochia plant response rating ([8]; 125 g ai/ha, postemergence): 0; Barnyardgrass plant response rating ([9]; 125 g ai/ha, postemergence): 20; Blackgrass plant response rating ([10]; 125 g ai/ha, postemergence): 0; Corn plant response rating ([11]; 125 g ai/ha, postemergence): 0; Foxtail, Giant plant response rating ([12]; 125 g ai/ha, postemergence): 20; Pigweed plant response rating ([13]; 125 g ai/ha, postemergence): 0; Ragweed plant response rating ([14]; 125 g ai/ha, postemergence): 0; Ryegrass, Italian plant response rating ([15]; 125 g ai/ha, postemergence): 0; Plant response rating, Ryegrass, Italian [15, 21]: 0; Wheat plant response rating ([16]; 125 g ai/ha, postemergence): 0; Plant response rating, Wheat [16, 21]: 20; Plant response rating, Barnyardgrass [17]: 0; Plant response rating, Ducksalad [18]: 40; Plant response rating, Rice [19]: 0; Plant response rating, Sedge, Umbrella [20]: 0 |
| O=C1NCC(c2cc(F)cc(Cl)c2)C1C(=O)Nc1ccc(F)cc1F (stereo not drawn) [Compound 493] | 0 | 20 | 90 | 90 | 90 | 90 | 0 | 0 | 0 | 30 | 0 | 20 | 40 | 20 | 90 | 50 | 70 | 90 | 0 | 20 | Galium plant response rating ([7]; 125 g ai/ha, postemergence): 30; Kochia plant response rating ([8]; 125 g ai/ha, postemergence): 0; Barnyardgrass plant response rating ([9]; 125 g ai/ha, postemergence): 90; Blackgrass plant response rating ([10]; 125 g ai/ha, postemergence): 20; Corn plant response rating ([11]; 125 g ai/ha, postemergence): 0; Foxtail, Giant plant response rating ([12]; 125 g ai/ha, postemergence): 90; Pigweed plant response rating ([13]; 125 g ai/ha, postemergence): 0; Ragweed plant response rating ([14]; 125 g ai/ha, postemergence): 20; Ryegrass, Italian plant response rating ([15]; 125 g ai/ha, postemergence): 20; Plant response rating, Ryegrass, Italian [15, 21]: 50; Wheat plant response rating ([16]; 125 g ai/ha, postemergence): 0; Plant response rating, Wheat [16, 21]: 30; Plant response rating, Barnyardgrass [17]: 60; Plant response rating, Ducksalad [18]: 80; Plant response rating, Rice [19]: 25; Plant response rating, Sedge, Umbrella [20]: 0 |
| COCc1cccc(C2CNC(=O)C2C(=O)Nc2ccccc2Cl)c1 (stereo not drawn) [Compound 498] | 0 | 0 | 30 | 90 | 40 | 80 | 0 | 0 | 0 | 0 | 0 | 0 | 0 | 0 | 70 | 0 | 0 | 40 | 0 | 0 | Galium plant response rating ([7]; 125 g ai/ha, postemergence): 0; Kochia plant response rating ([8]; 125 g ai/ha, postemergence): 0; Barnyardgrass plant response rating ([9]; 125 g ai/ha, postemergence): 30; Blackgrass plant response rating ([10]; 125 g ai/ha, postemergence): 0; Corn plant response rating ([11]; 125 g ai/ha, postemergence): 0; Foxtail, Giant plant response rating ([12]; 125 g ai/ha, postemergence): 20; Pigweed plant response rating ([13]; 125 g ai/ha, postemergence): 0; Ragweed plant response rating ([14]; 125 g ai/ha, postemergence): 0; Ryegrass, Italian plant response rating ([15]; 125 g ai/ha, postemergence): 0; Plant response rating, Ryegrass, Italian [15, 21]: 0; Wheat plant response rating ([16]; 125 g ai/ha, postemergence): 0; Plant response rating, Wheat [16, 21]: 0; Plant response rating, Barnyardgrass [17]: 45; Plant response rating, Ducksalad [18]: 90; Plant response rating, Rice [19]: 0; Plant response rating, Sedge, Umbrella [20]: 0 |
| CN1CC(c2c(F)cccc2F)C(C(=O)Nc2cccc(F)c2F)C1=O (stereo not drawn) [Compound 547] | 0 | 0 | 90 | 90 | 90 | 90 | 0 | 0 | 0 | 70 | 0 | 0 | 20 | 50 | 90 | 0 | 0 | 90 | 0 | 30 | Plant response rating, Galium [7, 22]: 0; Plant response rating, Kochia [8, 22]: 0; Plant response rating, Barnyardgrass [9, 22]: 70; Plant response rating, Blackgrass [10, 22]: 0; Plant response rating, Corn [11, 22]: 0; Plant response rating, Foxtail, Giant [12, 22]: 80; Plant response rating, Pigweed [13, 22]: 0; Plant response rating, Ragweed [14, 22]: 0; Plant response rating, Ryegrass, Italian [15, 22]: 0; Plant response rating, Ryegrass, Italian [15, 21]: 0; Plant response rating, Wheat [16, 22]: 0; Plant response rating, Wheat [16, 21]: 0; Plant response rating, Barnyardgrass [17]: 0; Plant response rating, Ducksalad [18]: 0; Plant response rating, Rice [19]: 0; Plant response rating, Sedge, Umbrella [20]: 0 |
| CC(C)Oc1cccc(C2CNC(=O)C2C(=O)Nc2ccccc2F)c1 (stereo not drawn) [Compound 552] | 0 | 70 | 90 | 90 | 90 | 90 | 0 | 0 | 0 | 60 | 20 | 40 | 60 | 30 | 90 | 70 | 50 | 80 | 0 | 20 | Plant response rating, Galium [7, 22]: 40; Plant response rating, Kochia [8, 22]: 0; Plant response rating, Barnyardgrass [9, 22]: 80; Plant response rating, Blackgrass [10, 22]: 30; Plant response rating, Corn [11, 22]: 20; Plant response rating, Foxtail, Giant [12, 22]: 70; Plant response rating, Pigweed [13, 22]: 0; Plant response rating, Ragweed [14, 22]: 0; Plant response rating, Ryegrass, Italian [15, 22]: 30; Plant response rating, Ryegrass, Italian [15, 21]: 50; Plant response rating, Wheat [16, 22]: 0; Plant response rating, Wheat [16, 21]: 40; Plant response rating, Barnyardgrass [17]: 60; Plant response rating, Ducksalad [18]: 100; Plant response rating, Rice [19]: 10; Plant response rating, Sedge, Umbrella [20]: 0 |
